Assay results: ChEMBL document CHEMBL1909046, “DrugMatrix in vitro pharmacology data”
*1 amine or outer side, *2 acyl side, *3 side chain or, on linkers, in order; H or OH if unused. Where a SMILES comes first, the peptide text is derived from it. Bridges are numbered along the chain shown (N, C = ends). Roman numbers before positions name the chains, in order. [ ]: non-standard residue; d: D form. Actinocin(1to9) = Cc1c2oc3c(C)ccc(C(=O)[*:2])c3nc-2c(C(=O)[*:1])c(N)c1=O; NMeV = CN[C@H](C(=O)O)C(C)C; Sar = CNCC(=O)O

Key:
[1] = DRUGMATRIX: Calcium Channel Type L, Dihydropyridine radioligand binding (ligand: [3H] Nitrendipine); type: cell membranes, Rattus norvegicus, Wistar, Cerebral cortex, Membrane; conditions: Not Active = under 50% inhibition at 10 µM
[2] = DRUGMATRIX: Glutamate, NMDA, Phencyclidine radioligand binding (ligand: [3H] TCP); type: cell membranes, Rattus norvegicus, Wistar, Cerebral cortex, Membrane; conditions: Not Active = under 50% inhibition at 10 µM
[3] = target: Receptor tyrosine-protein kinase erbB-2 (Homo sapiens, UniProt P04626); assay: biochemical; type: cell-based, Insect cells;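 further: inhibition of HER2 kinase enzyme activity, measured with Poly(Glu:Tyr) as the phosphorylation substrate; in other assays of this panel Not Active means under 50% inhibition at 10 µM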
Sequence of Receptor tyrosine-protein kinase erbB-2 (P04626 whole entry): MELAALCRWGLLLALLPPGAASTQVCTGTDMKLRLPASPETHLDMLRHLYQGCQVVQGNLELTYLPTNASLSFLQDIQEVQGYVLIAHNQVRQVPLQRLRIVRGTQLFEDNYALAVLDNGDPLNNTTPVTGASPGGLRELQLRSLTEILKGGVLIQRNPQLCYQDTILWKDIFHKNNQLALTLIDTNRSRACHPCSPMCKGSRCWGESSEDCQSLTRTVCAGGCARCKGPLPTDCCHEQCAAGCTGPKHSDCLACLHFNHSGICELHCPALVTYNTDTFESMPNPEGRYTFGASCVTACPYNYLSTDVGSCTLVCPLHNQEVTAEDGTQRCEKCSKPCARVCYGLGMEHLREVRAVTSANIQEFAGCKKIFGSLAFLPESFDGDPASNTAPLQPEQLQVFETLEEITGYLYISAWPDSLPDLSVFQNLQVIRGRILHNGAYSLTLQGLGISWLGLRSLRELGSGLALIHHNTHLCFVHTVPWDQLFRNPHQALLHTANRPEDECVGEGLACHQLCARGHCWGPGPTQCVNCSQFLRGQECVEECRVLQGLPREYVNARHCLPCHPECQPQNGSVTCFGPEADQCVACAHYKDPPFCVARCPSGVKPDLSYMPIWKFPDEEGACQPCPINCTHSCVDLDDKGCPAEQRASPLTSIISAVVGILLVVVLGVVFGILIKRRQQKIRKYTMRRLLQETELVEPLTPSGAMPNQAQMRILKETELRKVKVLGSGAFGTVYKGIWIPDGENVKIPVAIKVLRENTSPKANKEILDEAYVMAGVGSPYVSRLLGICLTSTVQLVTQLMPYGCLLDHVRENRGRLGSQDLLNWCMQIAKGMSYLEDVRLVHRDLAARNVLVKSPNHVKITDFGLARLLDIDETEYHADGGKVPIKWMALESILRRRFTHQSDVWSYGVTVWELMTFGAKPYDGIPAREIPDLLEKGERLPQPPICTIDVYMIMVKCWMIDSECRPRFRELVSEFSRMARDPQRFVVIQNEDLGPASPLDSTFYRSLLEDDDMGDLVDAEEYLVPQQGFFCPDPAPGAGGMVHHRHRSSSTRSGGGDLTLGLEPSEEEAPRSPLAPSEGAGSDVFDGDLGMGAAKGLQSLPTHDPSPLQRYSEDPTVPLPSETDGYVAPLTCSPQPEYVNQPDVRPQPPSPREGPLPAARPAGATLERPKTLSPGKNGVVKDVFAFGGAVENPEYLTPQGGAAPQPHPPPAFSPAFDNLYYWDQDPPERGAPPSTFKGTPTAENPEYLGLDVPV

[4] = target: T1, Progesterone receptor (Bos taurus, UniProt Q690N0); assay: DRUGMATRIX: Progesterone radioligand binding (ligand: [3H] R-5020); type: tissue-based, Uterus; conditions: Not Active = under 50% inhibition at 10 µM; for Ki: read-out: Ki
T1 sequence (Q690N0 whole entry): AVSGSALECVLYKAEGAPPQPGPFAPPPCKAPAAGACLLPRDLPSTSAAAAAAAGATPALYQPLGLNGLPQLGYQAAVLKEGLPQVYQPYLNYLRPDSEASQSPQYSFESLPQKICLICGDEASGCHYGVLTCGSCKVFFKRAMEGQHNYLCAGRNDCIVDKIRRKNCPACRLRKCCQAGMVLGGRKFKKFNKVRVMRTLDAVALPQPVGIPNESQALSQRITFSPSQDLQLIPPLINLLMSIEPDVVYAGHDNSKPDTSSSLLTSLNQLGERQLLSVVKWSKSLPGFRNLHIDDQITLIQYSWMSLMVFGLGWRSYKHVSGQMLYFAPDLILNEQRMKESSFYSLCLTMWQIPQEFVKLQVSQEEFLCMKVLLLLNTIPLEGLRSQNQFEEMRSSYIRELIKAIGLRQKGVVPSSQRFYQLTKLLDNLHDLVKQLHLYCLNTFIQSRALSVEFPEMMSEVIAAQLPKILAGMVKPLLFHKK

[5] = target: Sodium-dependent noradrenaline transporter (Homo sapiens, UniProt P23975); assay: DRUGMATRIX: Norepinephrine Transporter radioligand binding (ligand: [125I] RTI-55); type: cell membranes, MDCK, Membrane; conditions: mdck; Not Active = under 50% inhibition at 10 µM
Sequence of Sodium-dependent noradrenaline transporter (P23975 whole entry): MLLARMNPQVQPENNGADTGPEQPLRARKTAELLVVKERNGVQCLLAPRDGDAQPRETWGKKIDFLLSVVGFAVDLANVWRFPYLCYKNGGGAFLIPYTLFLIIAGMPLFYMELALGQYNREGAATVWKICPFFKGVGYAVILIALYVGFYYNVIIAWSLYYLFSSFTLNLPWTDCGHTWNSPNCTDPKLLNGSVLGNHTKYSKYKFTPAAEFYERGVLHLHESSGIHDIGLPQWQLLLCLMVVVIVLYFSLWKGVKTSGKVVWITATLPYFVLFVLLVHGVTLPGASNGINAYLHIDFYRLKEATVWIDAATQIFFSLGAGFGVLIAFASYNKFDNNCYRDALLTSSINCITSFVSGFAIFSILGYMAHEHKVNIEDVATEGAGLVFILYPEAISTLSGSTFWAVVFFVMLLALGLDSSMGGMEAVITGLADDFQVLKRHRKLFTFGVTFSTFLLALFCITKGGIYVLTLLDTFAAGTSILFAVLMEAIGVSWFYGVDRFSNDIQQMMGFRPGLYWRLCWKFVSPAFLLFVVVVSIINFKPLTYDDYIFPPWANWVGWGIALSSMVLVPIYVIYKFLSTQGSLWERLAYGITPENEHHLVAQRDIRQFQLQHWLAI

SMILES	IC50 [1]	Ki [1]	IC50 [2]	Ki [2]	IC50 ([3]; insect cells)	IC50 [4]	IC50 [5]	IC50 ([3]; read-out: IC50)	IC50 ([4]; read-out: IC50)	Ki [4]
CC(C)(Oc1ccc(Cl)cc1)C(=O)O [CLOFIBRIC ACID]	Not Active	Not Active	Not Active	Not Active	Not Active	Not Active	Not Active			
Clc1cccc(Cl)c1NC1=NCCN1 [CLONIDINE]	Not Active	Not Active	Not Active	Not Active	Not Active	Not Active	Not Active			
Cc1cc(C(C#N)c2ccc(Cl)cc2)c(Cl)cc1NC(=O)c1cc(I)cc(I)c1O (stereo unspecified) [CLOSANTEL]	Not Active	Not Active	Not Active	Not Active		Not Active	Not Active	2470 nM		
Cc1onc(-c2ccccc2Cl)c1C(=O)N[C@@H]1C(=O)N2[C@@H]1SC(C)(C)[C@@H]2C(=O)O [CLOXACILLIN]	Not Active	Not Active	Not Active	Not Active	Not Active	Not Active	Not Active			
CC1CC(OC(=O)C(O)c2ccccc2)CC(C)(C)C1 (stereo unspecified) [CYCLANDELATE]	Not Active	Not Active	Not Active	Not Active	Not Active	Not Active	Not Active			
Cc1c2oc3c(C)ccc(C(=O)N[C@@H]4C(=O)N[C@H](C(C)C)C(=O)N5CCC[C@H]5C(=O)N(C)CC(=O)N(C)[C@@H](C(C)C)C(=O)O[C@@H]4C)c3nc-2c(C(=O)N[C@@H]2C(=O)N[C@H](C(C)C)C(=O)N3CCC[C@H]3C(=O)N(C)CC(=O)N(C)[C@@H](C(C)C)C(=O)O[C@@H]2C)c(N)c1=O [DACTINOMYCIN] (I: T[dV]P[Sar][NMeV] / II: T[dV]P[Sar][NMeV]; ester I:1-I:C, II:1-II:C; linker I:N-II:N via Actinocin(1to9))	Not Active	Not Active	Not Active	Not Active	Not Active	Not Active	Not Active			
Cc1c(O)c(=O)ccn1C [DEFERIPRONE]	Not Active	Not Active	Not Active	Not Active	Not Active	Not Active	Not Active			
O=c1oc2ccccc2c(O)c1Cc1c(O)c2ccccc2oc1=O [DICUMAROL]	Not Active	Not Active	Not Active	Not Active	Not Active	Not Active	Not Active			
C[C@H]1O[C@@H](O[C@H]2[C@@H](O)C[C@H](O[C@H]3[C@@H](O)C[C@H](O[C@H]4CC[C@@]5(C)[C@H](CC[C@@H]6[C@@H]5C[C@@H](O)[C@]5(C)[C@@H](C7=CC(=O)OC7)CC[C@]65O)C4)O[C@@H]3C)O[C@@H]2C)C[C@H](O)[C@@H]1O [DIGOXIN]	Not Active	Not Active	Not Active	Not Active	Not Active	Not Active	Not Active			
CC(C)[C@@]1(NC(=O)[C@@H]2C[C@@H]3c4cccc5[nH]cc(c45)C[C@H]3N(C)C2)O[C@@]2(O)[C@@H]3CCCN3C(=O)[C@H](Cc3ccccc3)N2C1=O.CS(=O)(=O)O [DIHYDROERGOCRISTINE MESYLATE]	Not Active	Not Active	Not Active	Not Active	Not Active	Not Active	Not Active			
CC(=O)O[C@@]12CO[C@@H]1C[C@H](O)[C@@]1(C)C(=O)[C@H](O)C3=C(C)[C@@H](OC(=O)[C@H](O)[C@@H](NC(=O)OC(C)(C)C)c4ccccc4)C[C@@](O)([C@@H](OC(=O)c4ccccc4)[C@H]21)C3(C)C.O.O.O [DOCETAXEL]	Not Active	Not Active	Not Active	Not Active	Not Active	Not Active	Not Active			
COc1cc2nc(N3CCN(C(=O)C4COc5ccccc5O4)CC3)nc(N)c2cc1OC (stereo unspecified) [DOXAZOSIN]	Not Active	Not Active	Not Active	Not Active	Not Active	Not Active	Not Active			
C[C@H]1c2cccc(O)c2C(=O)C2=C(O)[C@]3(O)C(=O)C(C(N)=O)=C(O)[C@@H](N(C)C)[C@@H]3[C@@H](O)[C@@H]21.O [DOXYCYCLINE]	Not Active	Not Active	Not Active	Not Active	Not Active	Not Active	Not Active			
O=C(CCCN1CC=C(n2c(=O)[nH]c3ccccc32)CC1)c1ccc(F)cc1 [DROPERIDOL]	Not Active	Not Active	Not Active	Not Active	Not Active	Not Active	Not Active			
CC(C)[C@H]1C(=O)N2CCC[C@H]2[C@]2(O)O[C@](NC(=O)[C@@H]3C=C4c5cccc6[nH]cc(c56)C[C@H]4N(C)C3)(C(C)C)C(=O)N12 [ERGOCORNINE]	Not Active	Not Active	Not Active	Not Active	Not Active	Not Active	Not Active			
C[C@]12CC[C@@H]3c4ccc(O)cc4CC[C@H]3[C@@H]1CCC2=O [ESTRONE]	Not Active	Not Active	Not Active	Not Active	Not Active		Not Active		16100 nM	2100 nM
OC(Cn1cncn1)(Cn1cncn1)c1ccc(F)cc1F [FLUCONAZOLE]	Not Active	Not Active	Not Active	Not Active	Not Active	Not Active	Not Active			
CC(C)C(=O)Nc1ccc([N+](=O)[O-])c(C(F)(F)F)c1 [FLUTAMIDE]	Not Active	Not Active	Not Active	Not Active	Not Active	Not Active	Not Active			
N=C(N)NCCN1CCCCCCC1 [GUANETHIDINE]	Not Active	Not Active	Not Active	Not Active	Not Active	Not Active	Not Active			
CC1(C)O[C@@H]2C[C@H]3[C@@H]4CCC5=CC(=O)CC[C@]5(C)[C@@]4(F)[C@@H](O)C[C@]3(C)[C@]2(C(=O)CCl)O1 [HALCINONIDE]	Not Active	Not Active	Not Active	Not Active	Not Active		Not Active		0.93 nM	0.121 nM
O=c1[nH]c(=O)n([C@H]2C[C@H](O)[C@@H](CO)O2)cc1I [IDOXURIDINE]	Not Active	Not Active	Not Active	Not Active	Not Active	Not Active	Not Active			
CC1Cc2ccccc2N1NC(=O)c1ccc(Cl)c(S(N)(=O)=O)c1 (stereo unspecified) [INDAPAMIDE]	Not Active	Not Active	Not Active	Not Active	Not Active	Not Active	Not Active			
Nc1nc(N)nc(-c2cc(Cl)ccc2Cl)n1.O=C(O)/C=C\C(=O)O [IRSOGLADINE MALEATE]	Not Active	Not Active	Not Active	Not Active	Not Active	Not Active	Not Active			
CCC(C)n1ncn(-c2ccc(N3CCN(c4ccc(OCC5COC(Cn6cncn6)(c6ccc(Cl)cc6Cl)O5)cc4)CC3)cc2)c1=O (stereo unspecified) [ITRACONAZOLE]	Not Active	Not Active	Not Active	Not Active	Not Active	Not Active	Not Active			
CCCCN1CCCC[C@H]1C(=O)Nc1c(C)cccc1C [LEVOBUPIVACAINE]	Not Active	Not Active	Not Active	Not Active	Not Active	Not Active	Not Active			
CCCCc1nc(Cl)c(CO)n1Cc1ccc(-c2ccccc2-c2nnn[nH]2)cc1 [LOSARTAN]	Not Active	Not Active	Not Active	Not Active	Not Active	Not Active	Not Active			
Sc1ncnc2nc[nH]c12 [MERCAPTOPURINE ANHYDROUS]	Not Active	Not Active	Not Active	Not Active	Not Active	Not Active	Not Active			
C[C@](N)(Cc1ccc(O)c(O)c1)C(=O)O [METHYLDOPA]	Not Active	Not Active	Not Active	Not Active	Not Active	Not Active	Not Active			
C[C@]12CCC(=O)C=C1CC[C@@H]1[C@@H]2CC[C@@]2(C)[C@H]1CC[C@]2(C)O [METHYLTESTOSTERONE]	Not Active	Not Active	Not Active	Not Active	Not Active		Not Active		251 nM	33 nM
